Assay results: US20120132204A1, “UNIT DOSE DRY POWDER INHALER” (priority 2005, published 2012)

Key:
[1] = Particle size of spray-dried powder (Predictive Example); assay type: physicochemical; settings: spray dried from 10% w/v feedstock
Protocol: A feedstock comprising 10% w/v frovatriptan succinate was fed to an in-house spray-dryer and was spray dried at the following settings: feed rate=2.1 g/min, inlet temp=130° C., outlet temp=66° C., atomisation=2-fluid nozzle, atomisation pressure=2 barg, atomisation air flow rate=21 l/min, drying air pressure=1 barg, drying air flow rate=5 l/sec. A respirable powder of less than 10 microns was produced which could then be administered to a patient in need of rapid relief from a migraine using the unit-dose dry powder inhaler of the invention.

[2] = system: 5-HT receptor; settings: compared within the triptan class; cited from earlier work
[3] = preclinical pharmacology studies; cited from earlier work
[4] = broad dose range of 1 to 100 mg; cited from earlier work
[5] = system: cytochrome P450 isoenzymes; settings: cited from earlier work
[6] = system: plasma proteins; settings: cited from earlier work
[7] = system: migraine; settings: cited from earlier work

| SMILES | particle size of respirable powder [1] | 5-HT potency [2] | cerebro-selectivity [3] | tolerability [4] | inhibiting or inducing effects on cytochrome P450 isoenzymes [5] | binding to plasma proteins [6] | response rates ([7]; compared with placebo) | headache recurrence rates ([7]; compared within the triptan class) |
| --- | --- | --- | --- | --- | --- | --- | --- | --- |
| CN[C@@H]1CCc2[nH]c3ccc(C(N)=O)cc3c2C1 [frovatriptan succinate] | less than 10 microns | – | – | – | – | – | – | – |
| CN[C@@H]1CCc2[nH]c3ccc(C(N)=O)cc3c2C1 [Frovatriptan] | – | highest 5-HT potency in the triptan class | apparently cerebro-selective | well-tolerated | no inhibiting or inducing effects | only slightly bound | significantly higher response rates compared with placebo | lowest reported range of headache recurrence rates in the triptan class |
